According to patent publication US20230295118A1 (EnhancedBio Inc., priority 2022, published 2023):

Key:
Format in all cases: cell-based
[1] = test system: mantle cell lymphoma cell (Mino or JeKo-1); assay: Antiproliferative effect, MTS cell viability assay; conditions: 72 h, mantle cell lymphoma cell (Mino or JeKo-1), MTS assay, read-out: IC50 (anti-proliferation)
Method in brief: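 MTS read-out (formazan absorbance at 490 nm) after 72 h exposure of Mino cells to 0–1 μM compound (0.0001, 0.001, 0.01, 0.1, 1 μM). Palbociclib and abemaciclib served as positive controls.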

CDK4 = target: T1, CDK4 (Homo sapiens, UniProt P11802); assay: CDK4 degradation (DC50, Dmax)
T1 construct: endogenous in cells

CDK6 = target: T2, CDK6 (Homo sapiens, UniProt Q00534); assay: CDK6 degradation (DC50, Dmax)
T2 construct: endogenous in cells
T2 sequence (Q00534 whole entry): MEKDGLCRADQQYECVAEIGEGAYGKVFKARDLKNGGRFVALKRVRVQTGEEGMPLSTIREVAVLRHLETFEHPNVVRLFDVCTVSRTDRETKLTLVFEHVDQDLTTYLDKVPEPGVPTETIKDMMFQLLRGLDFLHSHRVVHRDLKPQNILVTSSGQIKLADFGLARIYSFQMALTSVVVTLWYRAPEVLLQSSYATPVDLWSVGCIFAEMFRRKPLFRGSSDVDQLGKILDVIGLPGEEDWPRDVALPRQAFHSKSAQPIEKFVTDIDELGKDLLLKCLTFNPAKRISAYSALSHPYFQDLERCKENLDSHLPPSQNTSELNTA

T1 sequence (P11802 whole entry): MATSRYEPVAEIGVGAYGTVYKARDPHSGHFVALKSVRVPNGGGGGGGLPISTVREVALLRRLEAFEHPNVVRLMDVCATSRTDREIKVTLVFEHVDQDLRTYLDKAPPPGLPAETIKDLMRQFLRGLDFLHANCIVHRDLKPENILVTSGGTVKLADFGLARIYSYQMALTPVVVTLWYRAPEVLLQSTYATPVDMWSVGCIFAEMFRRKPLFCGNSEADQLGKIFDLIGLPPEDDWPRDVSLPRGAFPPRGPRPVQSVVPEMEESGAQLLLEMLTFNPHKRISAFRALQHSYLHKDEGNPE

Which results are given for `CC(=O)c1c(C)c2cnc(Nc3ccc(N4CCN(CC5CCN(C(=O)N6CCC(CCN7CCN(c8ccc9c(c8)C(=O)N(C8CCC(=O)NC8=O)C9=O)CC7)CC6)CC5)CC4)cn3)nc2n(C2CCCC2)c1=O` (stereo not drawn) [Compound 83, 5-(4-(2-(1-(4-((4-(6-((6-acetyl-8-cyclopentyl-5-methyl-7-oxo-7,8-dihydropyrido[2,3-d]pyrimidin-2-yl)amino)pyridin-3-yl)piperazin-1-yl)methyl)piperidine-1-carbonyl)piperidin-4-yl)ethyl)piperazin-1-yl)-2-(2,6-dioxopiperidin-3-yl) isoindoline-1,3-dione]?
IC50 [1]: > 200 nM; DC50 (CDK4): > 200 nM; Dmax (CDK4): > 50%; DC50 (CDK6): > 200 nM; Dmax (CDK6): > 50%

What does the source list for `CC(=O)c1c(C)c2cnc(Nc3ccc(N4CCN(CCN5CCC(c6ccc7c(c6)CN(C6CCC(=O)NC6=O)C7=O)CC5)CC4)cn3)nc2n(C2CCCC2)c1=O` (stereo not drawn) [Compound 72, 3-(5-(1-(2-(4-(6-((6-acetyl-8-cyclopentyl-5-methyl-7-oxo-7,8-dihydropyrido[2,3-d]pyrimidin-2-yl)amino)pyridin-3-yl)piperazin-1-yl)ethyl)piperidin-4-yl)-1-oxoisoindolin-2-yl)piperidine-2,6-dione]?
IC50 [1]: 50 to 200 nM; DC50 (CDK4): 50 to 200 nM; Dmax (CDK4): > 60%; DC50 (CDK6): > 200 nM; Dmax (CDK6): > 50%

Which results are given for `CC(=O)c1c(C)c2cnc(Nc3ccc(N4CCN(C5CN(c6ccc(C(=O)NC7CCC(=O)NC7=O)cc6)C5)CC4)cn3)nc2n(C2CCCC2)c1=O` (stereo not drawn) [Compound 102, 4-(3-(4-(6-((6-acetyl-8-cyclopentyl-5-methyl-7-oxo-7,8-dihydropyrido[2,3-d]pyrimidin-2-yl)amino)pyridin-3-yl)piperazin-1-yl)azetidin-1-yl)-N-(2,6-dioxopiperidin-3-yl)benzamide]?
IC50 [1]: 50 to 200 nM; DC50 (CDK4): 50 to 200 nM; Dmax (CDK4): > 80%; DC50 (CDK6): 50 to 200 nM; Dmax (CDK6): > 60%

With `CC(=O)c1c(C)c2cnc(Nc3ccc(N4CCN(C(=O)N5CCC(CCN6CCN(c7ccc8c(c7)C(=O)N(C7CCC(=O)NC7=O)C8=O)CC6)CC5)CC4)cn3)nc2n(C2CCCC2)c1=O` (stereo not drawn) [Compound 19, 5-(4-(2-(1-(4-(6-((6-acetyl-8-cyclopentyl-5-methyl-7-oxo-7,8-dihydropyrido[2,3-d]pyrimidin-2-yl)amino)pyridin-3-yl)piperazine-1-carbonyl)piperidin-4-yl)ethyl)piperazin-1-yl)-2-(2,6-dioxopiperidin-3-yl)isoindoline-1,3-dione] as the compound, how does the IC50 [1] read?
The IC50 was under 50 nM.

And the DC50 (CDK4)?
Its DC50 is 50 to 200 nM.

And the Dmax (CDK4)?
The Dmax was over 60%.

And the DC50 (CDK6)?
The DC50 was 50 to 200 nM.

And the Dmax (CDK6)?
Its Dmax is over 60%.

`CC(=O)c1c(C)c2cnc(Nc3ccc(N4CCN(CCCCN(C)c5ccc6c(c5)CN(C5CCC(=O)NC5=O)C6=O)CC4)cn3)nc2n(C2CCCC2)c1=O` (stereo not drawn) [Compound 60, 3-(5-((4-(4-(6-((6-acetyl-8-cyclopentyl-5-methyl-7-oxo-7,8-dihydropyrido[2,3-d]pyrimidin-2-yl)amino)pyridin-3-yl)piperazin-1-yl)butyl)(methyl)amino)-1-oxoisoindolin-2-yl) piperidine-2,6-dione] was tested. Which IC50 [1] did it give?
The IC50 was 50 to 200 nM.

And the DC50 (CDK4)?
The DC50 was 50 to 200 nM.

What about the Dmax (CDK4) of the same compound?
Its Dmax is over 60%.

What about the DC50 (CDK6) of the same compound?
The DC50 was 50 to 200 nM.

What about the Dmax (CDK6) of the same compound?
The Dmax was over 60%.

How did the IC50 [1] turn out when `CC(=O)c1c(C)c2cnc(Nc3ccc(N4CCN(C5CCN(C(=O)Nc6ccc7c(c6)C(=O)N(C6CCC(=O)NC6=O)C7=O)CC5)CC4)cn3)nc2n(C2CCCC2)c1=O` (stereo not drawn) [Compound 39, 4-(4-(6-((6-acetyl-8-cyclopentyl-5-methyl-7-oxo-7,8-dihydropyrido[2,3-d]pyrimidin-2-yl)amino)pyridin-3-yl)piperazin-1-yl)-N-(2-(2,6-dioxopiperidin-3-yl)-1,3-dioxoisoindolin-5-yl)piperidine-1-carboxamide] was run?
Its IC50 is under 50 nM.

What about the DC50 (CDK4) of the same compound?
Its DC50 is 50 to 200 nM.

What about the Dmax (CDK4) of the same compound?
Its Dmax is over 80%.

And the DC50 (CDK6)?
The DC50 was 50 to 200 nM.

What about the Dmax (CDK6) of the same compound?
The Dmax was over 80%.

With `CC(=O)c1c(C)c2cnc(Nc3ccc(N4CCN(CC5CN(c6ccc(NC7CCC(=O)NC7=O)cc6)C5)CC4)cn3)nc2n(C2CCCC2)c1=O` (stereo not drawn) [Compound 120, 3-((4-(3-((4-(6-((6-acetyl-8-cyclopentyl-5-methyl-7-oxo-7,8-dihydropyrido[2,3-d]pyrimidin-2-yl)amino)pyridin-3-yl)piperazin-1-yl)methyl)azetidin-1-yl)phenyl)amino) piperidine-2,6-dione] as the compound, how does the IC50 [1] read?
Its IC50 is under 50 nM.

And the DC50 (CDK4)?
Its DC50 is under 50 nM.

And the Dmax (CDK4)?
Its Dmax is over 80%.

And the DC50 (CDK6)?
Its DC50 is 50 to 200 nM.

And the Dmax (CDK6)?
Its Dmax is over 80%.

Which results are given for `Cc1nc2c(F)cc(-c3nc(Nc4ccc(CN5CCN(C6CCN(c7ccc(N8CCC(=O)NC8=O)cc7)CC6)CC5)cn4)ncc3F)cc2n1C(C)C` [Compound 109, 1-(4-(4-(4-((6-((5-fluoro-4-(4-fluoro-1-isopropyl-2-methyl-1H-benzo[d]imidazol-6-yl)pyrimidin-2-yl)amino)pyridin-3-yl)methyl)piperazin-1-yl)piperidin-1-yl)phenyl) dihydropyrimidine-2,4(1H,3H)-dione]?
IC50 [1]: < 50 nM; DC50 (CDK4): < 50 nM; Dmax (CDK4): > 80%; DC50 (CDK6): < 50 nM; Dmax (CDK6): > 80%

`Cc1nc2c(F)cc(-c3nc(Nc4ccc(CC5CCN(C(=O)C6CCN(c7ccc8c(c7)C(=O)N(C7CCC(=O)NC7=O)C8=O)CC6)CC5)cn4)ncc3F)cc2n1C(C)C` (stereo not drawn) [Compound 161, 2-(2,6-dioxopiperidin-3-yl)-5-(4-(4-((6-((5-fluoro-4-(4-fluoro-1-isopropyl-2-methyl-1H-benzo[d]imidazol-6-yl)pyrimidin-2-yl)amino)pyridin-3-yl)methyl)piperidine-1-carbonyl)piperidin-1-yl)isoindoline-1,3-dione] was tested. Which IC50 [1] did it give?
The IC50 was 50 to 200 nM.

And the DC50 (CDK4)?
The DC50 was 50 to 200 nM.

And the Dmax (CDK4)?
Its Dmax is over 60%.

And the DC50 (CDK6)?
The DC50 was over 200 nM.

And the Dmax (CDK6)?
Its Dmax is over 60%.

For `Cc1nc2c(F)cc(-c3nc(Nc4ccc(CN5CCN(C(=O)C6CN(c7ccc8c(c7)C(=O)N(C7CCC(=O)NC7=O)C8=O)C6)CC5)cn4)ncc3F)cc2n1C(C)C` (stereo not drawn) [Compound 135, 2-(2,6-dioxopiperidin-3-yl)-5-(3-(4-((6-((5-fluoro-4-(4-fluoro-1-isopropyl-2-methyl-1H-benzo[d]imidazol-6-yl)pyrimidin-2-yl)amino)pyridin-3-yl)methyl)piperazine-1-carbonyl)azetidin-1-yl)isoindoline-1,3-dione], which IC50 [1] is on record?
Its IC50 is under 50 nM.

What about the DC50 (CDK4) of the same compound?
Its DC50 is under 50 nM.

And the Dmax (CDK4)?
The Dmax was over 80%.

What about the DC50 (CDK6) of the same compound?
The DC50 was 50 to 200 nM.

What about the Dmax (CDK6) of the same compound?
Its Dmax is over 60%.

What does the source list for `Cc1nc2c(F)cc(-c3nc(Nc4ccc(CN5CCN(CC6CN(c7ccc(C(=O)NC8CCC(=O)NC8=O)cc7)C6)CC5)cn4)ncc3F)cc2n1C(C)C` (stereo not drawn) [Compound 133, N-(2,6-dioxopiperidin-3-yl)-4-(3-((4-((6-((5-fluoro-4-4-fluoro-1-isopropyl-2-methyl-1H-benzo[d]imidazol-6-yl)pyrimidin-2-ylamino)pyridin-3-yl)methyl)piperazin-1-yl)methyl)azetidin-1-yl)benzamide]?
IC50 [1]: < 50 nM; DC50 (CDK4): < 50 nM; Dmax (CDK4): > 80%; DC50 (CDK6): < 50 nM; Dmax (CDK6): > 80%

Which results are given for `CC(=O)c1c(C)c2cnc(Nc3ccc(N4CCN(CC5CCN(C(=O)Nc6ccc7c(c6)C(=O)N(C6CCC(=O)NC6=O)C7=O)CC5)CC4)cn3)nc2n(C2CCCC2)c1=O` (stereo not drawn) [Compound 41, 4-((4-(6-((6-acetyl-8-cyclopentyl-5-methyl-7-oxo-7,8-dihydropyrido[2,3-d]pyrimidin-2-yl)amino)pyridin-3-yl)piperazin-1-yl)methyl)-N-(2-(2,6-dioxopiperidin-3-yl)-1,3-dioxoisoindolin-5-yl)piperidine-1-carboxamide]?
IC50 [1]: < 50 nM; DC50 (CDK4): < 50 nM; Dmax (CDK4): > 80%; DC50 (CDK6): 50 to 200 nM; Dmax (CDK6): > 80%
